The record followed here is patent US4160643A, “Water soluble cationic azo dyestuffs containing a cyclammonium group” (Imperial Chemical Industries Limited, priority 1976, dated 1979).

Series [1] can be described thus: Behaviour in forming a liquid in a water/acetic acid/sulpholane solvent system. The conditions noted are these: Table 1; ambient temperature. Format: physicochemical.
Series [2] is described as follows: Solubility of dyestuffs in water. It counts as physicochemical.
Where [3] appears, read: Table 1, 25° C., read-out: Solubility in water at 25° C.
[4] abbreviates: Table 3, dyestuff of Example 13 structure, chloride, 25° C., read-out: Solubility in water at 25° C.
[5] abbreviates: Table 3, dyestuff of Example 13 structure, chloride, 50° C., read-out: Solubility in water at 50° C.
Setting [6] is: Table 4, dyestuff of Example 19 structure, acid sulphate, 25° C., read-out: Solubility in water at 25° C.
Setting [7] is: Table 4, dyestuff of Example 19 structure, acid sulphate, 50° C., read-out: Solubility in water at 50° C.

Like-named read-outs stand apart in the source and are kept apart here.

With `O=[N+]([O-])c1ccc(N=Nc2ccc(NCC[n+]3ccccc3)c(Cl)c2)cc1` [Pyridine (Table 1)], in series [1], the “Solubility of 1 part of dye in 1 part water 1.5 part acetic acid 1 part sulpholane” value is reported as “Not a solution at ambient”. In series [2] (setting [3]), the solubility is under 2500 µg/mL. As for `CCN(CC[n+]1ccccc1)c1ccc(N=Nc2ccc([N+](=O)[O-])cc2Cl)cc1` [Pyridine (Table 3)], the solubility in series [2] (setting [4]) worked out at 10000 µg/mL; in series [2] (setting [5]) it was 300000 µg/mL. With `CCN(CC[n+]1ccccc1)c1ccc(N=Nc2c(Cl)cc([N+](=O)[O-])cc2Cl)cc1` [Pyridine (Table 4)], the solubility in series [2] (setting [6]) amounted to 10000 µg/mL; in series [2] (setting [7]), 20000 µg/mL.

For `Cc1cccc[n+]1CCNc1ccc(N=Nc2ccc([N+](=O)[O-])cc2)cc1Cl` [α-picoline], in series [2] (setting [3]), the solubility was under 2500 µg/mL. In the case of `Cc1cc[n+](CCNc2ccc(N=Nc3ccc([N+](=O)[O-])cc3)cc2Cl)cc1` [γ-picoline (Table 1)], the “Solubility of 1 part of dye in 1 part water 1.5 part acetic acid 1 part sulpholane” value in series [1] is on record as “Not a solution at ambient”. Besides, the solubility in series [2] (setting [3]) was 75000 to 100000 µg/mL. For `CCN(CC[n+]1ccc(C)cc1)c1ccc(N=Nc2ccc([N+](=O)[O-])cc2Cl)cc1` [γ-picoline (Table 3)], the solubility in series [2] (setting [4]) amounted to 10000 µg/mL; in series [2] (setting [5]) it was 240000 µg/mL. In the case of `CCN(CC[n+]1ccc(C)cc1)c1ccc(N=Nc2c(Cl)cc([N+](=O)[O-])cc2Cl)cc1` [γ-picoline (Table 4)], the solubility is 1000 µg/mL in series [2] (setting [6]) and 5000 µg/mL in series [2] (setting [7]).

One may read the solubility as the concentration that dissolves in the medium under given conditions.
